In paper PMC9686653, “Bioengineered Nisin A Derivatives Display Enhanced Activity against Clinical Neonatal Pathogens” (Antibiotics, 2022):
“Also recorded” adds a separate entry of the source. Marks after values point to notes of the source that are not given here. Where no end group is shown, it is not given here.

What was measured:
[1] = cited from earlier work
Source text: NSR degrades nisin by cleaving the pept ...

S. capitis strains = experiment: Broth MIC assay, summary over isolates; type: cell-based, Staphylococcus capitis; conditions: some strains of S. capitis; purified peptides
Protocol: MIC determinations were carried out in triplicate in 96-well microtiter plates (Sarstedt, Newton, NC, USA) as previously described. Initially, 200µL of 1% bovine serum albumin (BSA) (Sigma-Aldrich, St. Louis, MO, USA) (in PBS) was added to the plates which were incubated at 37 °C for 30 min. The solution was removed, plates were washed with 200 µL PBS and then air dried in a laminar flow hood. Target strains (Streptococcus agalactiae, Staphylococcus capitis and Lactococcus lactis) were grown overnight in suitable media under appropriate conditions and were subsequently sub-cultured into fresh broth and allowed to grow to an optical density of ~0.5 (OD600). The culture was then diluted to a final concentration of 10^5 CFU mL^−1 in a volume of 1 mL. The peptides were resuspended in appropriate media to a stock concentration of […] (S. agalactiae and S. capitis strains) and […] (L. lactis strains). Nisin A and nisin derivatives were adjusted to a starting concentration of 15 µM (S. agalactiae and S. capitis strains) or 5 µM (L. lactis strains). […] An aliquot of 100 µL of peptides and or antibiotics were added to the first well, mixed and then 2-fold serial dilutions of each peptide were made in TSBYE broth. […] The MIC was read as the lowest peptide concentration causing inhibition of visible growth. […]

[2] = system: nisin resistance protein (NSR); conditions: cited from earlier work
[3] = system: clinical isolates of S. agalactiae (n = 5) and S. capitis (n = 5); experiment: Deferred antagonism agar-based assay; type: cell-based, Streptococcus agalactiae, Staphylococcus capitis; conditions: pathogenic indicators, n = 10; listed as nisin PV
Protocol: All plates were supplemented with sub-inhibitory concentration (10 µg/L) of nisin in the form of nisaplin to ensure induction of the nisin mutants.
Site-saturation mutagenesis of three codons, including threonine, lysine and methionine, at positions 2, 12 and 17 of the nisA gene, was carried out as described previously. Briefly, pDF23 (pCI372-PV) was used as a template and oligonucleotides, NisT2deg-FOR and REV, NisK12deg-FOR and REV and Nis17deg-FOR and REV, containing an NNK codon potentially encoding for all twenty standard amino acids. Deferred antagonism agar-based assays were employed to assess the bioactivity of the nisin derivatives (PV, K12X-PV, T2X-PV, and M17X-PV) produced by each strain. Briefly, fresh overnight cultures of each L. lactis test culture was replicated on GM17/TSBYE agar plates containing 0.1% nisaplin using a 96-pin replicator (Boekel, Feasterville, PA, USA) and incubated overnight at 30 °C before being exposed to ultraviolet radiation for 45 min. The plates were then overlayed with GM17/TYSBYE agar (0.75% agar) and seeded (0.5% inoculum) with either Lactococcus lactis MG1614 (NSR-), the nisin resistance protein-expressing indicator strain L. lactis MG1614 pNP40 (NSR+) or TSBYE agar seeded with Staphylococcus capitis (NSR+) or Streptococcus agalactiae (NSR+) isolates. […]

S. agalactiae CIT 85 = experiment: Broth MIC assay; type: cell-based, Streptococcus agalactiae; conditions: from MIC
Protocol: (§1) MIC determinations were carried out in triplicate in 96-well microtiter plates (Sarstedt, Newton, NC, USA) as previously described. Initially, 200µL of 1% bovine serum albumin (BSA) (Sigma-Aldrich, St. Louis, MO, USA) (in PBS) was added to the plates which were incubated at 37 °C for 30 min. The solution was removed, plates were washed with 200 µL PBS and then air dried in a laminar flow hood. Target strains (Streptococcus agalactiae, Staphylococcus capitis and Lactococcus lactis) were grown overnight in suitable media under appropriate conditions and were subsequently sub-cultured into fresh broth and allowed to grow to an optical density of ~0.5 (OD600). The culture was then diluted to a final concentration of 10^5 CFU mL^−1 in a volume of 1 mL. The peptides were resuspended in appropriate media to a stock concentration of […] (S. agalactiae and S. capitis strains) and […] (L. lactis strains). Nisin A and nisin derivatives were adjusted to a starting concentration of 15 µM (S. agalactiae and S. capitis strains) or 5 µM (L. lactis strains). […] An aliquot of 100 µL of peptides and or antibiotics were added to the first well, mixed and then 2-fold serial dilutions of each peptide were made in TSBYE broth. Then, 100 µL of target strain was added to each test well, and the plates were incubated at 30 °C or 37 °C for 16 h. The MIC was read as the lowest peptide concentration causing inhibition of visible growth. Experiments were performed in triplicate.

S. agalactiae strains = experiment: Broth MIC assay, summary over isolates; type: cell-based, Streptococcus agalactiae; conditions: four of the five S. agalactiae strains; from MIC
Protocol: as §1

S. capitis AY41 = experiment: microbe, parasite or virus in culture; type: cell-based, Staphylococcus capitis
Protocol: as §1

S. capitis BA06 = experiment: Broth MIC assay; type: cell-based, Staphylococcus capitis; conditions: from MIC
Protocol: as §1

S. capitis AV80 = experiment: Time-kill curve analysis; type: cell-based, Staphylococcus capitis; conditions: nisin peptides […] (1/4 MIC), ampicillin 3.75 µg/mL (1/4 MIC); re-growth after 6 h
Protocol: The means and standard deviations of three independent determinations are presented.
During incubation, 100µL of each sample was taken at 0, 2, 4, 6 and 24 h. Cell growth was assessed by performing viable cell counts by diluting cultures in PBS solution and enumeration on TSBYE plates. Synergism was defined as ≥2 log10 CFU/mL reduction with the combination of antimicrobials relative to either antimicrobial alone after 24 h. A 1–2 log10 reduction in CFU/mL was defined as an additive effect and an increase or decrease of <1 log10 was defined as an indifferent effect. An antagonistic effect was defined as >2 log10 increase in CFU/mL after 24 h [28]. Experiments were performed in triplicate.

In the case of “nisin 1–28: truncated nisin structure left after NSR cleavage (ITSISLCTPGCKTGALMGCNMKTATCHC; ends and bridges not checked; also: lantibiotic thioether rings (Lan/MeLan) and dehydro residues, places not given here; UniProt P13068 24-51, looked up, fragment)”, the “decrease in antimicrobial activity compared to nisin” value [1] is given as “up to 100 fold”.
For `C=C(NC(=O)[C@@H](NC(=O)[C@H](Cc1c[nH]cn1)NC(=O)[C@@H](NC(=O)[C@@H]1CCCN1C(=O)[C@@H]1CS[C@@H](C)[C@H]2NC(=O)[C@H](C)NC(=O)[C@H](NC(=O)[C@H](CCCCN)NC(=O)[C@H](CCSC)NC(=O)[C@H](CC(N)=O)NC(=O)[C@@H]3CS[C@@H](C)[C@@H](NC(=O)[C@H](CCCCN)NC(=O)[C@@H]4CS[C@@H](C)[C@@H](NC(=O)[C@@H]5CSC[C@@H](NC(=O)/C(=C/C)NC(=O)[C@@H](N)[C@@H](C)CC)C(=O)N[C@@H]([C@@H](C)CC)C(=O)NC(=C)C(=O)N[C@@H](CC(C)C)C(=O)N5)C(=O)N5CCC[C@H]5C(=O)NCC(=O)N4)C(=O)NCC(=O)N[C@@H](C)C(=O)N[C@@H](CC(C)C)C(=O)N[C@@H](CCSC)C(=O)NCC(=O)N3)[C@H](C)SC[C@H](NC2=O)C(=O)N[C@@H](Cc2c[nH]cn2)C(=O)N1)C(C)C)C(C)C)C(=O)N[C@@H](CCCCN)C(=O)O` [PV], the “fold more active compared to nisin A” value (S. capitis strains) is listed as 2–4 fold, the “susceptibility to proteolytic cleavage by NSR” value [2] is listed as “resist proteolytic cleavage by NSR” and the “bioactivity (zone of inhibition) of the producing strain” value [3] is listed as “improved antimicrobial activity against all strains tested; also recorded: greatest bioactivity against the majority of pathogenic indicators”. For the same compound, the “fold decrease in potency compared to nisin A” value (S. agalactiae CIT 85) was 2 fold, the “fold increase in potency compared to nisin A” value (from here on “fold increase in potency”) (S. agalactiae strains) was 2 fold and the MIC (S. capitis AY41; 16 h) was 6 * µg/mL. For the same compound, the “fold increase in potency” value (S. capitis AY41; from MIC) was 4 fold, the “fold increase in potency” value (S. capitis BA06) was 2 fold and the “time-kill outcome of single treatments” value (S. capitis AV80) was “inhibited bacterial growth over 4 h”.
